From the supplement of paper PMC13380429

Tests used:
Conditions in all cases: 72 h
Caco-2 [1] = experiment: cell viability relative to DMSO; higher = less toxic
U2OS [2] = experiment: as above
Vero E6 [3] = experiment: as above
Calu-3 [4] = experiment: as above
HepG2 [5] = experiment: as above
Caco-2 [6] = experiment: drug sensitivity score (DSS) for viability; higher = more toxic; extreme values may be limits of the assay
U2OS [7] = experiment: as above
Vero E6 [8] = experiment: as above
Calu-3 [9] = experiment: as above
HepG2 [10] = experiment: as above
Caco-2 [11] = experiment: relative viability EC50 (midpoint between 100% and the lowest measured viability); higher = less toxic
U2OS [12] = experiment: as above
Vero E6 [13] = experiment: as above
Calu-3 [14] = experiment: as above
HepG2 [15] = experiment: as above

| SMILES | cell viability (Caco-2 [1]; 1 nM) | cell viability (Caco-2 [1]; 10 nM) | cell viability (Caco-2 [1]; 100 nM) | cell viability (Caco-2 [1]; 1000 nM) | cell viability (Caco-2 [1]; 10000 nM) | cell viability (U2OS [2]; 1 nM) | cell viability (U2OS [2]; 10 nM) | cell viability (U2OS [2]; 100 nM) | cell viability (U2OS [2]; 1000 nM) | cell viability (U2OS [2]; 10000 nM) | cell viability (Vero E6 [3]; 1 nM) | cell viability (Vero E6 [3]; 10 nM) | cell viability (Vero E6 [3]; 100 nM) | cell viability (Vero E6 [3]; 1000 nM) | cell viability (Vero E6 [3]; 10000 nM) | cell viability (Calu-3 [4]; 1 nM) | cell viability (Calu-3 [4]; 10 nM) | cell viability (Calu-3 [4]; 100 nM) | cell viability (Calu-3 [4]; 1000 nM) | cell viability (Calu-3 [4]; 10000 nM) | cell viability (HepG2 [5]; 1 nM) | cell viability (HepG2 [5]; 10 nM) | cell viability (HepG2 [5]; 100 nM) | cell viability (HepG2 [5]; 1000 nM) | cell viability (HepG2 [5]; 10000 nM) | drug sensitivity score (Caco-2 [6]) | drug sensitivity score (U2OS [7]) | drug sensitivity score (Vero E6 [8]) | drug sensitivity score (Calu-3 [9]) | drug sensitivity score (HepG2 [10]) | relative viability EC50 (Caco-2 [11]) | relative viability EC50 (U2OS [12]) | relative viability EC50 (Vero E6 [13]) | relative viability EC50 (Calu-3 [14]) | relative viability EC50 (HepG2 [15]) |
| --- | --- | --- | --- | --- | --- | --- | --- | --- | --- | --- | --- | --- | --- | --- | --- | --- | --- | --- | --- | --- | --- | --- | --- | --- | --- | --- | --- | --- | --- | --- | --- | --- | --- | --- | --- |
| CN1C(C(=O)Nc2ccccn2)=C(O)c2sc(Cl)cc2S1(=O)=O [lornoxicam] | 110% | 95% | 99.9% | 86.6% | 95.5% | 100% | 93.8% | 102% | 94.7% | 100% | 92.4% | 98.8% | 94.8% | 97.1% | 91.3% | 95.3% | 100% | 107% | 99.8% | 104% | 91.1% | 104% | 100% | 104% | 97.4% | 0 | 0 | 0 | 0 | 0 | > 10 µM | > 10 µM | > 10 µM | > 10 µM | > 10 µM |
| NC(=O)N1c2ccccc2CC(O)c2ccccc21 (stereo not given) [licarbazepine] | 98.3% | 99.5% | 97.8% | 100% | 91.5% | 108% | 97.5% | 98.8% | 101% | 102% | 101% | 102% | 104% | 97.6% | 97.8% | 98.3% | 99.9% | 96.3% | 105% | 92.1% | 96.3% | 96.4% | 93.5% | 108% | 99% | 0 | 0 | 0 | 0 | 0 | > 10 µM | > 10 µM | > 10 µM | > 10 µM | > 10 µM |
| N[C@@H](CCNCc1ccc(Cl)cc1)C(=O)N1CCCCC1 | 95.9% | 94.3% | 101% | 96.6% | 98.4% | 98.9% | 99% | 104% | 99.5% | 101% | 94.1% | 99.3% | 91% | 100% | 103% | 108% | 98.1% | 101% | 101% | 93.2% | 101% | 109% | 102% | 112% | 95.9% | 0 | 0 | 0 | 0 | 0 | > 10 µM | > 10 µM | > 10 µM | > 10 µM | > 10 µM |
| Nc1cc(Cl)c(N=C2NCCN2)c(Cl)c1 [apraclonidine] | 104% | 92.7% | 110% | 111% | 96.6% | 96.4% | 101% | 94.8% | 101% | 102% | 108% | 89.1% | 101% | 95.2% | 98.6% | 93.6% | 100% | 106% | 106% | 98.2% | 96.5% | 96.7% | 105% | 92.3% | 96.5% | 0 | 0 | 0 | 0 | 0 | > 10 µM | > 10 µM | > 10 µM | > 10 µM | > 10 µM |
| CC(=O)[C@@]1(O)CC[C@H]2[C@@H]3C[C@H](C)C4=CC(=O)CC[C@]4(C)[C@H]3CC[C@@]21C [medroxyprogesterone] | 96.8% | 96.7% | 92.4% | 91.7% | 89.1% | 105% | 97.3% | 97.5% | 94.4% | 94.8% | 105% | 99.5% | 98.1% | 99% | 89% | 86.5% | 104% | 95.6% | 104% | 103% | 94.7% | 98.5% | 103% | 106% | 84.1% | 0 | 0 | 0 | 0 | 0.2 | > 10 µM | > 10 µM | > 10 µM | > 10 µM | > 10 µM |
| O=C1c2cccc3c2[C@H](CCC3)CN1[C@@H]1CN2CCC1CC2 [palonosetron] | 105% | 97.5% | 90.8% | 96.8% | 102% | 98.9% | 97.5% | 99.5% | 100% | 94.2% | 99.7% | 103% | 103% | 99.3% | 82.4% | 106% | 99% | 91.3% | 100% | 98.8% | 94.4% | 90.2% | 88.6% | 96.1% | 88.9% | 0 | 0 | 0.5 | 0 | 0 | > 10 µM | > 10 µM | > 10 µM | > 10 µM | > 10 µM |
| CCC(=O)NC[C@H](Cc1ccc(OCCc2nc(-c3ccccc3)oc2C)cc1)N/C(C)=C\C(=O)c1ccc(C(F)(F)F)cc1 [GW-6471] | 94.5% | 102% | 106% | 97.8% | 93.6% | 96.6% | 104% | 101% | 100% | 95.4% | 98.6% | 97.6% | 96.1% | 89.3% | 94.8% | 101% | 94.7% | 103% | 97.4% | 102% | 97.3% | 99.5% | 93.8% | 101% | 109% | 0 | 0 | 0 | 0 | 0 | > 10 µM | > 10 µM | > 10 µM | > 10 µM | > 10 µM |
| CC1(C)S[C@@H]2[C@H](NC(=O)Cc3ccccc3)C(=O)N2[C@H]1C(=O)O [benzylpenicillin] | 80.1% | 101% | 97.6% | 95.3% | 106% | 96.6% | 101% | 101% | 104% | 104% | 99.5% | 97% | 99% | 98% | 107% | 88.5% | 104% | 98.8% | 93.4% | 94.2% | 95.9% | 94% | 116% | 99% | 98.2% | 0 | 0 | 0 | 0 | 0 | > 10 µM | > 10 µM | > 10 µM | > 10 µM | > 10 µM |
| COC(=O)C1=CO[C@@H](O)[C@@H]2C(CO)=CC[C@H]12 [genipin] | 91.6% | 96.1% | 102% | 96.8% | 88.5% | 93.8% | 94.3% | 99.7% | 92.8% | 100% | 90.1% | 101% | 95.7% | 99.5% | 106% | 88% | 92.8% | 83.6% | 85.1% | 87% | 87.6% | 105% | 103% | 106% | 113% | 0.1 | 0 | 0 | 2.4 | 0 | > 10 µM | > 10 µM | > 10 µM | > 10 µM | > 10 µM |
| C[C@H](CCC(=O)NCCS(=O)(=O)O)[C@H]1CC[C@H]2[C@@H]3[C@H](O)C[C@@H]4C[C@H](O)CC[C@]4(C)[C@H]3C[C@H](O)[C@]12C [taurocholate] | 110% | 86.9% | 104% | 87.2% | 92.2% | 100% | 98.9% | 101% | 98.9% | 99.2% | 104% | 106% | 107% | 110% | 95% | 103% | 99% | 109% | 102% | 96.3% | 105% | 74% | 99.8% | 108% | 98.4% | 0 | 0 | 0 | 0 | 0 | > 10 µM | > 10 µM | > 10 µM | > 10 µM | > 10 µM |
| CCCCCCCCCCCCC/C=C/[C@@H](O)[C@@H](N)CO[P@](=O)(O)OCC[N+](C)(C)C [sphingosylphosphorylcholine] | 91% | 90.4% | 102% | 101% | 102% | 94% | 97% | 101% | 95.7% | 100% | 99.4% | 103% | 94.1% | 105% | 109% | 94.2% | 106% | 87.7% | 97.5% | 107% | 86% | 98.8% | 88.5% | 102% | 104% | 0 | 0 | 0 | 0 | 0 | > 10 µM | > 10 µM | > 10 µM | > 10 µM | > 10 µM |
| CCOC(=O)CCC(=O)O[C@H]1[C@H](O[C@@H]2[C@@H](C)[C@H](O[C@H]3C[C@@](C)(OC)[C@@H](O)[C@H](C)O3)[C@@H](C)C(=O)O[C@H](CC)[C@@](C)(O)[C@H](O)[C@@H](C)C(=O)[C@H](C)C[C@@]2(C)O)O[C@H](C)C[C@@H]1N(C)C [erythromycin-ethylsuccinate] | 87.7% | 114% | 85.5% | 100% | 99.5% | 102% | 103% | 96.8% | 106% | 100% | 112% | 94.8% | 103% | 100% | 104% | 101% | 98.5% | 100% | 101% | 96.3% | 97.8% | 107% | 101% | 87.5% | 101% | 0 | 0 | 0 | 0 | 0 | > 10 µM | > 10 µM | > 10 µM | > 10 µM | > 10 µM |
| CCCCCOc1c(OC)ccc2cc(C(=O)NCc3ccc4c(c3)OCO4)c(=O)[nH]c12 [JTE-907] | 90.9% | 91.1% | 99.9% | 101% | 75.7% | 100% | 99.7% | 103% | 99.5% | 97.4% | 90.8% | 99.8% | 94.5% | 94.3% | 110% | 102% | 93.9% | 97.3% | 105% | 90.8% | 95% | 97.4% | 100% | 115% | 103% | 0.8 | 0 | 0 | 0 | 0 | > 10 µM | > 10 µM | > 10 µM | > 10 µM | > 10 µM |
| CN1CCN(c2ccc3ccccc3n2)CC1 [N-methylquipazine] | 102% | 91.4% | 104% | 97.3% | 102% | 101% | 99.4% | 102% | 96.8% | 98.9% | 97.7% | 97.8% | 95.7% | 97.1% | 111% | 106% | 96.2% | 99.2% | 96.4% | 95.1% | 99.4% | 96.1% | 98% | 102% | 111% | 0 | 0 | 0 | 0 | 0 | > 10 µM | > 10 µM | > 10 µM | > 10 µM | > 10 µM |
